According to ChEMBL document CHEMBL1201862, “PubChem BioAssay data set” (2004):
Activity calls are given as the source filed them.

Columns and labels:
[1] = target: Long-chain-fatty-acid--AMP ligase FadD28 (Mycobacterium tuberculosis, UniProt P9WQ59); experiment: Fluorescence polarization aasay to screen for inhibitors that compete for the binding of FadD28 to a bisubstrate Measured in Biochemical System Using Plate Reader - 2147-01_Inhibitor_Dose_CherryPick_Activity.; format: functional, Mycobacterium tuberculosis H37Rv
[2] = target: 72 kDa type IV collagenase (Homo sapiens, UniProt P08253); experiment: Dose Response validation of uHTS RPN11 inhibitor hits using a MMP-2 Fluorescence assay.; format: functional
Prothrombin = Prothrombin (Bos taurus, UniProt P00735); experiment: thrombin protease inhibitors – biochemical, fluorescence polarization, uHTS hits, dose response (AID 602369); format: functional
[3] = target: 26S proteasome non-ATPase regulatory subunit 14 (Homo sapiens, UniProt O00487); experiment: inhibition of proteasome subunit RPN11 – biochemical, fluorescence polarization, uHTS hits, confirmation (AID 602368); format: functional
[4] = cAMP pathway inhibition in counterscreen cell line – TR-FRET cAMP detection, counter-screen for MC4R biased antagonist project, dose response (AID 602305); format: functional, cell-based;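 note: U2OS cells stimulated with forskolin near its EC80 as the cAMP inducer; potency is for inhibition of forskolin-stimulated cAMP signaling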
Melanocortin receptor 4 = Melanocortin receptor 4 (Homo sapiens, UniProt P32245); experiment: inhibitors of MC4R cAMP signaling – cell-based, TR-FRET, biased antagonists, dose response (AID 602298); format: functional;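 note: antagonist potency against agonist-stimulated cAMP production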
[5] = reduction of Shn3 3'UTR-driven luciferase in osteoblasts – cell-based, Clone20 osteoblasts, firefly luciferase, cherry-picked, dose response (AID 624132); format: functional;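 note: firefly luciferase luminescence from reporter carrying the Shn3 3'UTR in osteoblasts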
[6] = non-specific 3'UTR reporter inhibition in Clone20-Shn3RL – cell-based, Renilla luciferase, cherry-picked, counter-screen for Shn3 inhibitor project, dose response (AID 624133); format: functional
Protein Wnt-3a = Protein Wnt-3a (Mus musculus, UniProt P27467); experiment: antagonism of Wnt3a pathway luciferase reporter – Wnt-LIGHT cells, luminescence, selectivity assay for Gli-SUFU antagonist project, dose response (AID 651570); format: functional; conditions: read-out: IC50_Mean;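 note: Wnt-LIGHT reporter cells stimulated with conditioned medium from Wnt3a-producing cells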
[7] = loss of viability in HepG2 cells – cell-based, CellTiter-Glo, cherry-picked, cytotoxicity control for Shn3 inhibitor project, dose response (AID 624134); format: functional
[8] = target: T1, Rac GTPase-activating protein 1 (Homo sapiens, UniProt Q9H0H5); experiment: blockers of MgcRacGAP-driven Rac1 GTP hydrolysis – biochemical, ADP Hunter fluorescence, primary and confirmatory, confirmation (AID 624330); format: functional
T1 sequence (Q9H0H5 whole entry): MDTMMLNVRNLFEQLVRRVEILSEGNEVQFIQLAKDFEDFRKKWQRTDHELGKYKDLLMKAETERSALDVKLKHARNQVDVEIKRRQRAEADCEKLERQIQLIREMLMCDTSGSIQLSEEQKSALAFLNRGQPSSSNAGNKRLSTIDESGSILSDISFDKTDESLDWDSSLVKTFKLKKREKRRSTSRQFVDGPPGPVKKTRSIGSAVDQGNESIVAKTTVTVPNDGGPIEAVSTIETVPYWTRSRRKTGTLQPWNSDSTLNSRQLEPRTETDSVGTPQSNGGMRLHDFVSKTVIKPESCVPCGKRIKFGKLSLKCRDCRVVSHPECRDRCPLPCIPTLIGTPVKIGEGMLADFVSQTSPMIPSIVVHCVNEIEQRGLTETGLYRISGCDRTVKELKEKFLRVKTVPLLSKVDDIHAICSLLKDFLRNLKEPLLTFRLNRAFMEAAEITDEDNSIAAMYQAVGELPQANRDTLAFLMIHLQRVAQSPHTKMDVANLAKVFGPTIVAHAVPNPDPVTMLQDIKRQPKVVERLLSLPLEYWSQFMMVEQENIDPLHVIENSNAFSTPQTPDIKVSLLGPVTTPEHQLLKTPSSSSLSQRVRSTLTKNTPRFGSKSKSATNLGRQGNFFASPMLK

[9] = target: Apoptotic protease-activating factor 1 (Homo sapiens, UniProt O14727); format: functional
Sequence of Apoptotic protease-activating factor 1 (O14727 whole entry): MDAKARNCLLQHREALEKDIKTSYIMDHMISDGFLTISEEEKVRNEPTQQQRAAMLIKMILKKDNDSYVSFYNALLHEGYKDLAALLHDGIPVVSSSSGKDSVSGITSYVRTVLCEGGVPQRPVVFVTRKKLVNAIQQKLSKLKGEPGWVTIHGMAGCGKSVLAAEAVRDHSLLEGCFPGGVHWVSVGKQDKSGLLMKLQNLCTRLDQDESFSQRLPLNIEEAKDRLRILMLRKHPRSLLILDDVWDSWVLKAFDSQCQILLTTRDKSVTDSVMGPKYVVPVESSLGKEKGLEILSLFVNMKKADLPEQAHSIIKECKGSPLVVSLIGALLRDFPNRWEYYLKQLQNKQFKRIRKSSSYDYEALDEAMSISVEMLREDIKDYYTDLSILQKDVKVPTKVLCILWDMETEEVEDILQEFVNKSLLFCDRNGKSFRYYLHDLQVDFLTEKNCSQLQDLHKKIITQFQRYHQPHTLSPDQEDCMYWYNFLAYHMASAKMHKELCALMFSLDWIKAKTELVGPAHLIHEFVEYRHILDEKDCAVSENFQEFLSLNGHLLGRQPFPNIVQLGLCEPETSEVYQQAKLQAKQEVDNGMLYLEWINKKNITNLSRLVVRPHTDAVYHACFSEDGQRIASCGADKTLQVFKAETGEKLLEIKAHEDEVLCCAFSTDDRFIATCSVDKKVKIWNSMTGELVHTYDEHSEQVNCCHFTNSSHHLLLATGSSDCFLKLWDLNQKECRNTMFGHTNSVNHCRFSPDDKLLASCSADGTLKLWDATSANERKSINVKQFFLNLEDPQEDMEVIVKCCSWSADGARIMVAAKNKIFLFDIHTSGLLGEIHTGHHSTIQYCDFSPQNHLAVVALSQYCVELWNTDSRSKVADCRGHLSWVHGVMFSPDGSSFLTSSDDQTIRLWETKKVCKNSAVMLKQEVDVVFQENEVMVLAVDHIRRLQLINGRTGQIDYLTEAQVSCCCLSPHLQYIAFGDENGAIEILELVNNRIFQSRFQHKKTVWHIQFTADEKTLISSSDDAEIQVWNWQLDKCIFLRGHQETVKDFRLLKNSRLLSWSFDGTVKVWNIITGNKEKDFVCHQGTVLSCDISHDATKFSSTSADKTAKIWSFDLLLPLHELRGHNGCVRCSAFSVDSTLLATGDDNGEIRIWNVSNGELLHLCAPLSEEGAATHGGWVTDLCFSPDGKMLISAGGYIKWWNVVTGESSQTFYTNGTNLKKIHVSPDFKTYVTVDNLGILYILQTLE

Sequence of Melanocortin receptor 4 (P32245 whole entry): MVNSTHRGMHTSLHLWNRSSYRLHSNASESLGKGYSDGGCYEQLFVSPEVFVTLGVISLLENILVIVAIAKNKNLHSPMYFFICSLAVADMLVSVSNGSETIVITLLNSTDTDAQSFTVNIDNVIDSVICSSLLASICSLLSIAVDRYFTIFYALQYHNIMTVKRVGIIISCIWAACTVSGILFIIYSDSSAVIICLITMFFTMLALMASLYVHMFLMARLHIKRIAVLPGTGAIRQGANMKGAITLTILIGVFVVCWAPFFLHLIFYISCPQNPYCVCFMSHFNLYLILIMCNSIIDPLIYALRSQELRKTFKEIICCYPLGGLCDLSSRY
Sequence of Long-chain-fatty-acid--AMP ligase FadD28 (P9WQ59 whole entry): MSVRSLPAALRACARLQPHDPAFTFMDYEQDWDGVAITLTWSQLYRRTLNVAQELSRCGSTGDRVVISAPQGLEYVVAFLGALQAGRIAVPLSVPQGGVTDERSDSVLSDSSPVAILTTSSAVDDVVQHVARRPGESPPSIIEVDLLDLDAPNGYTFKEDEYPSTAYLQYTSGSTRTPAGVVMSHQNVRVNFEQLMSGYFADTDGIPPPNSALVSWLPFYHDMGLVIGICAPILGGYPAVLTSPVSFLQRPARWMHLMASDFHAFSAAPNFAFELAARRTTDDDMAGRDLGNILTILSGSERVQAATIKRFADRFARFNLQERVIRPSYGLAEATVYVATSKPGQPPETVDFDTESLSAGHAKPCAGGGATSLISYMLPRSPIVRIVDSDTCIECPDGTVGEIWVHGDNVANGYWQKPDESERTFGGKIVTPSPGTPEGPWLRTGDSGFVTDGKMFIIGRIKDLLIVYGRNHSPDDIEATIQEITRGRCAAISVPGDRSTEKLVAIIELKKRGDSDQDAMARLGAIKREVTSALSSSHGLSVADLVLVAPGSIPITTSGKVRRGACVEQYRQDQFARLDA
Sequence of 26S proteasome non-ATPase regulatory subunit 14 (O00487 whole entry): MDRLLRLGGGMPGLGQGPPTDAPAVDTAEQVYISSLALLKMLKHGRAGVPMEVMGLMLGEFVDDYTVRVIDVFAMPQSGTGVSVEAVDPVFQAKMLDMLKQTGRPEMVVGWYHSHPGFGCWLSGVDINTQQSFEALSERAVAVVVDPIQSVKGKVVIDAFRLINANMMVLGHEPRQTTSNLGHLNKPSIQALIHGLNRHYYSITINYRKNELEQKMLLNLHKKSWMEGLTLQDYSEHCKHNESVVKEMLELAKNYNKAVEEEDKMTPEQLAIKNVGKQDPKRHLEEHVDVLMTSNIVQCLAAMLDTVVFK
Sequence of Protein Wnt-3a (P27467 whole entry): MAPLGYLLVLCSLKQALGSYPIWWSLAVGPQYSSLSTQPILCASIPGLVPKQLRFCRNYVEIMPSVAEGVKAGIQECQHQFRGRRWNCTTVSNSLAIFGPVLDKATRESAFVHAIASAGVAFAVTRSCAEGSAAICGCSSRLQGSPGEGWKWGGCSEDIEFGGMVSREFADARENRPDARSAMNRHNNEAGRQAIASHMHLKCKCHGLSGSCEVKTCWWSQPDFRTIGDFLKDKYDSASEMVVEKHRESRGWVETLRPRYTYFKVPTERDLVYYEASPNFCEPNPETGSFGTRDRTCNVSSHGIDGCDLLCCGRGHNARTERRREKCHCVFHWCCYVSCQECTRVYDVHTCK
Sequence of 72 kDa type IV collagenase (P08253 whole entry): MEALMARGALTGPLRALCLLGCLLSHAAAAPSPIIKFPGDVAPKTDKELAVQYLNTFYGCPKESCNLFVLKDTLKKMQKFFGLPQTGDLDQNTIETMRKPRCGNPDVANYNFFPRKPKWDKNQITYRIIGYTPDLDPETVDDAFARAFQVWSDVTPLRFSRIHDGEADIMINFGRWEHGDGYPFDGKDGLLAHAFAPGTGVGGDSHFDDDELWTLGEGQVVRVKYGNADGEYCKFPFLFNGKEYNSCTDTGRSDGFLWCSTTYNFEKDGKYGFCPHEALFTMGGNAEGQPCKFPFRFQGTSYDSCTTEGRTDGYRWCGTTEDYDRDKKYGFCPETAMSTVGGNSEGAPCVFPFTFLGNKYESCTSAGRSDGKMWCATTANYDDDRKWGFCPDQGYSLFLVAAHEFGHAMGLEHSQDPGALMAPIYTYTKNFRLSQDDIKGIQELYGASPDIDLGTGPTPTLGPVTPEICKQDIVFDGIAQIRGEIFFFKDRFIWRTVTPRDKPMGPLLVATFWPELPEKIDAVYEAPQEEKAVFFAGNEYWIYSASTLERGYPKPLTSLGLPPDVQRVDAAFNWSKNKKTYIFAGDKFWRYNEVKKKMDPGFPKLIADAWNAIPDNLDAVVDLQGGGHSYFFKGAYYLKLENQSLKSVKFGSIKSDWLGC

CCc1cccc2c(C(=O)COC(=O)c3cnc(C)cn3)c[nH]c12
AC50 [1]: 20 µM (active)

O=C(Cn1cc(C(=O)COc2ccccc2)c2ccccc21)NCc1ccco1
IC50 [2]: > 100 µM (inactive) | IC50 (Prothrombin): 41.3 µM (active) | IC50 [3]: 47.6 µM (active)

CCOC(=O)c1c(NC(=O)COc2cccc3c2CCN(C)C3=O)sc2c1CCC2
IC50 [4]: > 64.6 µM (inactive) | IC50 (Melanocortin receptor 4): > 64.6 µM (inactive) | AC50 [5]: 5.44 µM (active) | AC50 [6]: 22.8 µM (active) | IC50 (Protein Wnt-3a): 6.12 µM (active) | AC50 [7]: 41.7 µM (active)

CC1(C)OC(=O)C(=Cc2ccc(-c3ccc(S(N)(=O)=O)cc3)o2)C(=O)O1
IC50 [4]: > 64.6 µM (inactive) | IC50 [8]: 41.8 µM (active) | IC50 (Melanocortin receptor 4): > 64.6 µM (inactive)

COc1ccc(C(=O)Nc2ccc3c(c2)C(=O)c2ccccc2C3=O)cc1OC
IC50 [9]: > 100 µM (inactive)
